# Assays:
# Experiment in all cases: relative viability (nuclei count vs DMSO), 5 days (fraction); higher = more cells survive
# [1] = compound: CCN1C(=O)C2=CC(=C(N=C2N(C1=O)C3CC3)N)C(=O)N
# Procedure, shortened: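 Following overnight incubation at 37 °C, lung cancer cell lines in 1536-well plates were pinned with five library-drug doses (not always all listed) in √10 steps on vehicle-anchored plates. The cells then spent 5 days without medium change before a combined fix, permeabilisation and Hoechst stain, 4× imaging and MetaXpress nuclear counts. Viability is the treated-to-vehicle ratio of nuclei, taken as the median across plates. Only plates with control CV below 25% and at least one doubling passed.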
# [2] = compound: CCN1C(=O)C2=CC(=C(N=C2N(C1=O)C3CC3)N)C(=O)N + CC1(C)CCC(c2ccc(Cl)cc2)=C(CN2CCN(c3ccc(C(=O)NS(=O)(=O)c4ccc(N[C@H](CCN5CCOCC5)CSc5ccccc5)c(S(=O)(=O)C(F)(F)F)c4)cc3)CC2)C1 [Navitoclax] (partner 0.5 µM)
# Procedure, shortened: (§1)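 Relative viability was taken as the ratio of nuclei in treated wells to nuclei in vehicle wells. Lung cancer cell lines in 1536-well plates received compounds by pin tool one day after seeding, either one drug alone or a fixed anchor-drug dose plus five library-drug doses (not always all listed) in √10 steps. Nuclei were counted on 4× images after 5 days of treatment, and values are medians of duplicate plates.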
# [3] = compound: CCN1C(=O)C2=CC(=C(N=C2N(C1=O)C3CC3)N)C(=O)N + COc1cccc2cc(-c3nc([C@H]4CC[C@H](C(=O)O)CC4)n4ncnc(N)c34)[nH]c12 [OSI-027] (partner 0.5 µM)
# Procedure, shortened: as §1
# [4] = compound: CCN1C(=O)C2=CC(=C(N=C2N(C1=O)C3CC3)N)C(=O)N + CS(=O)(=O)N1CCN(Cc2cc3nc(-c4cccc5[nH]ncc45)nc(N4CCOCC4)c3s2)CC1 [Pictilisib] (partner 1 µM)
# Procedure, shortened: as §1
# [5] = compound: CCN1C(=O)C2=CC(=C(N=C2N(C1=O)C3CC3)N)C(=O)N + Nc1ncn([C@H]2C[C@H](O)[C@@H](CO)O2)c(=O)n1 [Decitabine] (partner 2 µM)
# Procedure, shortened: as §1
Cell Line,relative viability ([1]; 0.253 µM),relative viability ([1]; 0.8 µM),relative viability ([1]; 2.53 µM),relative viability ([1]; 8 µM),relative viability ([2]; first compound 0.253 µM),relative viability ([2]; first compound 0.8 µM),relative viability ([2]; first compound 2.53 µM),relative viability ([2]; first compound 8 µM),relative viability ([3]; first compound 0.253 µM),relative viability ([3]; first compound 0.8 µM),relative viability ([3]; first compound 2.53 µM),relative viability ([3]; first compound 8 µM),relative viability ([4]; first compound 0.253 µM),relative viability ([4]; first compound 0.8 µM),relative viability ([4]; first compound 2.53 µM),relative viability ([4]; first compound 8 µM),relative viability ([5]; first compound 0.253 µM),relative viability ([5]; first compound 0.8 µM),relative viability ([5]; first compound 2.53 µM),relative viability ([5]; first compound 8 µM)
NCI-H3122,1.01,1.01,0.993,0.956,1.06,1.02,1.02,1.01,0.888,0.948,0.905,0.93,0.51,0.695,0.554,0.658,0.396,0.432,0.434,0.427
PC-3 [JPC-3],1.06,1.01,1.06,1.08,0.747,0.838,0.861,0.755,0.746,0.85,0.735,0.791,0.729,0.696,0.69,0.737,0.81,–,0.871,0.886
PC-14,0.983,0.951,1.07,1.06,1.01,1.06,0.935,0.956,0.856,0.799,0.831,0.907,0.73,0.58,0.758,0.879,0.207,0.171,0.244,0.193
RERF-LC-KJ,1.02,0.929,0.909,0.959,1.21,0.947,0.767,0.923,0.6,0.638,0.584,0.632,0.488,0.455,0.508,0.55,0.772,0.742,0.68,0.593
SK-LU-1,1.05,1.07,1.06,1.06,0.797,0.855,0.977,0.865,0.414,0.381,0.353,0.369,0.559,0.581,0.717,0.614,0.63,0.72,0.782,0.669
SK-MES-1,1.01,0.972,0.976,0.997,1.03,1.28,1.22,1.27,0.626,0.564,0.588,0.583,0.358,0.403,0.323,0.37,0.381,0.359,0.4,0.365
SW 1573,0.937,1.07,0.959,0.978,0.949,0.977,0.919,0.979,0.534,0.612,0.675,0.587,0.51,0.519,0.464,0.551,0.573,0.582,0.434,0.476
UMC-11,0.946,0.935,0.951,0.969,0.312,0.277,0.308,0.324,0.5,0.463,0.506,0.521,0.891,0.865,0.767,0.853,0.71,0.604,0.617,0.457
